# Measured values as given in patent publication US20250136649A1, “HONEY TRUFFLE SWEETENER (HTS) VARIANTS” (MYCOTECHNOLOGY, INC., priority 2023, published 2025).
# pEC50: −log10 of the molar value. Where two headings read alike, the source gives them in different places.
# Assays:
# [1] = system: sweetness and flavor perception; assay: Tasting of HTS sweetener blends in citric acid solution, lemon/lime soda, almond milk, chocolate spread; type: in vivo, human
# Description: Sucrose is the standard for sweetness intensity perception in the food and beverage industry. […] With regard to the following Examples 18-38, sucrose equivalent (SE) values of non-sucrose sweeteners were calculated from Dubois et al. (1991) and cross referenced with other studies (Wee, M., Tan, V., & Forde, C. (2018). A Comparison of Psychophysical Dose-Response Behaviour across 16 Sweeteners. Nutrients, 10 (11), 1632).
# DE Walters, FT Orthoefer, GE DuBois, pp. 261-276. Washington, DC: Am. Chem. Soc).
# An HTS sweetness concentration response curve was developed. These values were used to determine approximate sucrose equivalents for the following blending examples (Examples 18-37).
# HTS ((0.0 mg/mL, 0.007 mg/mL, 0.015 mg/mL and 0.035 mg/mL) and sucrose (8% w/w, 6% w/w, 4% w/w, and 2% w/w (respectively)) were added to a citric acid solution. The sweetener mixture was compared to a control with only sucrose added to the matrix. The sweetener mix was expected to be as sweet as or sweeter than the sucrose control for this matrix. Of total perceived sweetness intensity in each of the experimental samples in Table 11, 75% comes from sucrose and 25% comes from HTS, 50% comes from sucrose and 50% comes from HTS, 25% comes from sucrose and 75% comes from HTS, respectively.
# HTS ((0.0 mg/mL, 0.008 mg/mL, 0.023 mg/mL and 0.064 mg/mL) and sucrose (10% w/w, 7.5% w/w, 5% w/w, and 2.5% w/w (respectively)) were added to a lemon/lime soda. The sweetener mixture was compared to a control with only sucrose added to the matrix. The sweetener mix was expected to be as sweet as or sweeter than the sucrose control for this matrix. Of total perceived sweetness intensity in each of the experimental samples in Table 12, 75% comes from sucrose and 25% comes from HTS, 50% comes from sucrose and 50% comes from HTS, 25% comes from sucrose and 75% comes from HTS, respectively.
# HTS ((0.0 mg/mL, 0.005 mg/mL, 0.007 mg/mL and 0.010 mg/mL) and sucrose (4% w/w, 3.0% w/w, 2% w/w, and 1.0% w/w (respectively)) were added to an unsweetened almond milk. The sweetener mixture was compared to a control with only sucrose added to the matrix. The sweetener mix was expected to be as sweet as or sweeter than the control for this matrix. Of total perceived sweetness intensity in each of the experimental samples in Table 13, 75% comes from sucrose and 25% comes from HTS, 50% comes from sucrose and 50% comes from HTS, 25% comes from sucrose and 75% comes from HTS, respectively.
# HTS ((0.0 mg/mL, 0.008 mg/mL, 0.023 mg/mL and 0.064 mg/mL) and sucrose (45% w/w, 33.8% w/w, 23% w/w, and 11.3% w/w (respectively)) were added to a chocolate spread. The sweetener mixture was compared to a control with only sucrose added to the matrix. The sweetener mix was expected to be as sweet as or sweeter than the control for this matrix. Of total perceived sweetness intensity in each of the experimental samples in Table 14, 75% comes from sucrose and 25% comes from HTS, 50% comes from sucrose and 50% comes from HTS, 25% comes from sucrose and 75% comes from HTS, respectively.
# HTS ((0.0 mg/mL, 0.007 mg/mL, 0.015 mg/mL and 0.035 mg/mL) and erythritol (11.43% w/w, 8.57% w/w, 5.71% w/w, and 2.86% w/w (respectively)) were added to a citric acid solution. The sweetener mixture was compared to a control with only erythritol added to the matrix. The sweetener mix was expected to be as sweet as or sweeter than the control for this matrix. Of total perceived sweetness intensity in each of the experimental samples in Table 15, 75% comes from erythritol and 25% comes from HTS, 50% comes from erythritol and 50% comes from HTS, 25% comes from erythritol and 75% comes from HTS, respectively.
# [2] = system: sweet taste; conditions: cited from earlier work; for potency curve multiplier relative to sucrose: linear potency curve similar to sucrose (DuBois 1991)
# [3] = system: perception of the flavor; assay: Tasting of HTS flavor modifying compositions in a mock beverage matrix; type: in vivo, human; conditions: pH about 3, 0.25% w/w lemon/lime flavor, HTS 0.004 mg/mL
# Description: HTS (0.004 mg/mL) and sucrose (10% w/w concentration) were added to a mock beverage matrix (citric acid, a flavor and carbonation). […] HTS and sucrose were added to hit a target of 10% w/w sucrose equivalent sweetness. The HTS/sucrose mixture was compared to an unsweetened control, an unsweetened control+0.004 mg/mL HTS, and a sucrose sweetened control (10% w/w concentration of sucrose).
# (§1) HTS (0.004 mg/mL) and erythritol (13.3% w/w concentration) were added to a mock beverage matrix (citric acid, a flavor, and carbonation). […] HTS and erythritol were added to hit a target of 10% w/w sucrose equivalent sweetness. The HTS/erythritol mixture was compared to an unsweetened control, an unsweetened control+0.004 mg/mL HTS, and an erythritol sweetened control (13.3% w/w concentration).
# as §1, with “sucralose (0.0387%” for “erythritol (13.3%”, “sucralose” for “erythritol”, “HTS/sucralose” for “HTS/erythritol”, “a sucralose” for “an erythritol”, “(0.0387%” for “(13.3%”
# HTS (0.004 mg/mL) and stevia (0.0395% w/w concentration) were added to a mock beverage matrix (citric acid, a flavor, and carbonation). […] HTS and stevia were added to hit a target of 10% w/w sucrose equivalent sweetness. […]
# [4] = system: sweet taste response; assay: Concentration-response functions for sweet taste (Opertech Bio); type: in vivo; conditions: for Relative to Sucrose (mM): equivalency to sucrose on a molar basis; for Relative to Sucrose (mg/ml): equivalency to sucrose on a weight basis; for EC50 / pEC50: half-maximal sweet taste response; for pEC50: nonlinear regression, read-out: EC50 (molar units)
# Description: Each data point in the curves for mycodulcein, aspartame, thaumatin, rebaudioside A was calculated as the average across 32 replicates and averaged across 16 replicates for the sucrose curve; error bars are SEM. Points for water and sucrose controls were similarly calculated as the average across 128 and 64 replicates, respectively. Curves were fit by non-linear regression.
# Opertech Bio (Philadelphia, PA) performed a quantitative characterization of the concentration-dependence of the taste properties of the purified his-tagged mycodulcein HTS (SEQ ID NO:141 with His-tag, SEQ ID NO:142) obtained from E. coli as described in Example 5 and purified as described in Example 4. The sweet-taste potency and relative efficacy of mycodulcein (HTS) was compared with sucrose and with other sweeteners thaumatin, rebaudioside A, and aspartame. Control standards were solutions of 200 mM sucrose, 100 mM NaCl, 0.5 mM quinine, and 10 mM citric acid. […] Each data point in the curves for mycodulcein, aspartame, thaumatin, and rebaudioside A was calculated as the average across 32 replicates and averaged across 16 replicates for the sucrose curve; error bars are SEM. Points for water and sucrose controls were similarly calculated as the average across 128 and 64 replicates, respectively. Curves were fit by non-linear regression.
# The concentrations that elicit half-maximal sweet taste response (EC50s, or potencies) were derived from the nonlinear regression. […] Also provided are the equivalencies to sucrose on a molar basis and on a weight basis.
# [5] = system: sweet sensation; assay: CATA time intensity of the sweet sensation in water; type: in vivo, human
# Description: Evaluation of thaumatin, sucrose, and his-tagged mycodulcein (HTS) was carried out using a CATA (click all that apply) time intensity of the sweet sensation of named analytes in water at 0.045 mg/mL for proteins and 10% sucrose. Methodology: Time Intensity Technique; Data collection software: EyeQuestion, responses recorded every 2.57 seconds; Scaling Method: a 15-point sweet scale, e.g., score 5=5% sucrose, score 10=10% sucrose; Evaluation Protocol: small volume sip, tilt and spit test. There were 3-6 panelists and 2 replicates. All samples were blinded and presented with randomized 3-digit codes. Training Strategies: An intense training on sweet scale over 6 weeks on 15-point sweet scale to confidently assign sweet values. Due to unique sweet behavioral patterns, it is necessary to train time intensity principles over 3 weeks. Samples were tasted with a stopwatch to note times and help reach a consensus. # of Panelists: 3-6, # of replications: 2. All samples were blinded and presented with randomized 3-digit codes. Statistical analysis: due to the small # of panelists, a statistical analysis cannot be performed.
compound,measurement,setting,value
"O=C(CO)C(O)C(O)C(O)CO (stereo not shown) [Allulose, allulose]",Observations,"[1]; lemon/lime soda, allulose w/w / HTS mg/mL: control 14.3%/0.0, 50/50 7.14%/0.023",Muted citrus flavor and sweetness intensity.
same,potency curve multiplier relative to sucrose,[2],0.7 ×
"OC[C@@H](O)[C@@H](O)CO [Erythritol, erythritol]",Observations,[3]; erythritol 13.30% w/w,"More sour, bitter, mineral, mouth drying,"
same,Observations,"[1]; chocolate spread, erythritol w/w / HTS mg/mL: control 45%/0.0, 75/25 33.8%/0.008, 50/50 23%/0.023, 25/75 11.3%/0.064","Brief initial sweetness, mouth cooling, cocoa"
same,Observations,"[1]; citric acid solution, erythritol w/w / HTS mg/mL: control 11.43%/0, 75/25 8.57%/0.007, 50/50 5.71%/0.015, 25/75 2.86%/0.035",Reduced sour intensity compared to sucrose
same,Observations,"[1]; lemon/lime soda, erythritol w/w / HTS mg/mL: control 13.30%/0.0, 75/25 9.31%/0.008, 50/50 6.90%/0.023, 25/75 3.10%/0.064",Reduced citrus flavor intensity. Strong mouth
same,potency curve multiplier relative to sucrose,[2],0.7 ×
"C=C1C[C@@]23CC[C@H]4[C@@](C)(CCC[C@@]4(C)C(=O)O[C@@H]4O[C@H](CO)[C@@H](O)[C@H](O)[C@H]4O)[C@@H]2CC[C@]1(O[C@@H]1O[C@H](CO)[C@@H](O)[C@H](O[C@@H]2O[C@H](CO)[C@@H](O)[C@H](O)[C@H]2O)[C@H]1O[C@@H]1O[C@H](CO)[C@@H](O)[C@H](O)[C@H]1O)C3 [REB, rebaudioside A]",Relative to Sucrose (mM),[4],857
same,Relative to Sucrose (mg/ml),[4],300
same,EC50,[4],41.1 µg/mL
same,pEC50,[4],4.38
"OC[C@H]1O[C@@](CO)(O[C@H]2O[C@H](CO)[C@@H](O)[C@H](O)[C@H]2O)[C@@H](O)[C@@H]1O [SUC, sucrose]",Observations,"[1]; almond milk, sucrose w/w / HTS mg/mL: control 4%/0.0, 75/25 3.0%/0.005, 50/50 2%/0.007, 25/75 1.0%/0.010","Pleasantly sweetened almond milk, creamy"
same,Observations,"[1]; citric acid solution, sucrose w/w / HTS mg/mL: control 8%/0.0, 75/25 6%/0.007, 50/50 4%/0.015, 25/75 2%/0.035",Reminiscent of sweet dessert and ice
same,Observations,"[1]; lemon/lime soda, sucrose w/w / HTS mg/mL: control 10%/0.0, 75/25 7.5%/0.008, 50/50 5%/0.023, 25/75 2.5%/0.064","Good, sweet to sour balance and pleasant"
"OC[C@H]1O[C@H](O[C@]2(CCl)O[C@H](CCl)[C@@H](O)[C@@H]2O)[C@H](O)[C@@H](O)[C@H]1Cl [Sucralose, sucralose]",Observations,[3]; sucralose 0.0387% w/w,"Sweet linger, little flavor carry over"
same,Observations,"[1]; almond milk, sucralose w/w / HTS mg/mL: control 0.0053%/0.0, 75/25 0.0037%/0.005, 50/50 0.0023%/0.007, 25/75 0.0011%/0.010",Pleasantly sweetened almond milk. Little
same,Observations,"[1]; chocolate spread, sucralose w/w / HTS mg/mL: control 0.0387%/0.0, 75/25 0.0247%/0.008, 50/50 0.0096%/0.023, 25/75 0.0030%/0.064",Reduced cocoa flavor intensity compared to sucrose
same,Observations,"[1]; citric acid solution, sucralose w/w / HTS mg/mL: control 0.0170%/0.0, 75/25 0.0100%/0.007, 50/50 0.0053%/0.015, 25/75 0.0023%/0.035",Intense initial sweetness that overpowers acidity.
same,Observations,"[1]; lemon/lime soda, sucralose w/w / HTS mg/mL: control 0.0387%/0.0, 75/25 0.0247%/0.008, 50/50 0.0096%/0.023, 25/75 0.0030%/0.064",Intense initial sourness. Strong sweet aftertaste.
"brazzein (QDKCKKVYENYPVSKCQLANQCNYDCKLDKHARSGECFYDEKRNLQCICDYCEY; UniProt P56552 1-54, looked up) [sweet protein]",times sweeter than sucrose on a gram basis,[2]; background,500 times
monellin,times sweeter than sucrose on a molar basis,[2]; background,"100,000 times"
thaumatin [THN],Relative to Sucrose (mM),[4],120000
same,Relative to Sucrose (mg/ml),[4],1865
same,EC50,[4],6.6 µg/mL
same,pEC50,[4],6.52
same,times sweeter than sucrose on a gram basis,[2]; background,3000 times
same,intensity when sucrose reaches threshold level,[5]; 0.045 mg/mL in water,low-moderate intensity
same,slope of time intensity curve,"[5]; 0.045 mg/mL in water vs 10% sucrose, longer peak time and more gradual/longer decline",flatter slope
same,maximum intensity (Imax) higher than sucrose,[5]; 0.045 mg/mL protein in water vs 10% sucrose,approximately 1 point on the 15 point scale
same,"potency, sweeter than sucrose on a molar basis",[5]; time intensity experiment,"approximately 120,000 ×"
same,"potency, sweeter than sucrose on a weight basis",[5]; time intensity experiment,~3000 ×
